What follows are compounds tested against T1, Human Polymorphonuclear Leukocyte Elastase (Homo sapiens, UniProt P08246) (assay: Inhibition of human polymorphonuclear leukocyte elastase via hydrolysis of N-t-Boc-alanyl-alanyl-prolylalanine-p-nitroanilide). Settings: Table I; crude PMN extract, Boc-AAPAN substrate, pH 7.5; 50% inhibition 2 minutes after zero time.
T1 construct: Crude extract of human polymorphonuclear leukocytes (PMN) containing elastase activity; from tissue; host or cells: human polymorphonuclear leukocytes (crude extract)
T1 sequence (P08246 30-247 limits assumed): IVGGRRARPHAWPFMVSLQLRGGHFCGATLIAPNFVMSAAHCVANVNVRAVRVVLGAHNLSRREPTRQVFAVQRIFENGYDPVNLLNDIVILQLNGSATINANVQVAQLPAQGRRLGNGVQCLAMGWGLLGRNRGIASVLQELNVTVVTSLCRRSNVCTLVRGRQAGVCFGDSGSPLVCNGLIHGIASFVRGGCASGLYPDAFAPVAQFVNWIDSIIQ
Type: biochemical
Procedure: Protocol Enzyme Assays for the Inhibition of Human Polymorphonuclear Leukocyte Elastase Via Hydrolysis of N-t-Boc-alanyl-alanyl-prolylalanine-p-nitroanilide Reagents:
0.05M TES (N-tris[hydroxymethyl]methyl-2-amino-ethanesulfonic acid) Buffer, pH 7.5.
0.2 mM N-t-Boc-alanyl-alanyl-prolyl-alanine-p-nitroanilide (Boc-AAPAN).
To prepare substrate, the solid (m.w. 550) was first dissolved in 10.0 ml DMSO. Buffer at pH 7.5 was then added to a final volume of 100 ml.
Crude extract of human polymorphonuclear leukocytes (PMN) containing elastase activity.
Inhibitors (cephalosporin sulfone esters) to be tested dissolved in DMSO just before use.
To 1.0 ml of 0.2 mM Boc-AAPAN in a cuvette, 0.01-0.1 ml of DMSO with or without inhibitor was added. After mixing, a measurement was taken at 410 mμ to detect any spontaneous hydrolysis due to presence of test compound. 0.05 Milliliters of PMN extract was then added and the ΔOD/min at 410 mμ was measured and recorded. Beckman model 35 spectrophotometer was used.
Results were reported as ED50, i.e., effective dosage in micrograms per milliliter (μg/ml) for 50% inhibition of the enzyme activity 2 minutes after zero time.
The elastase activity in the crude PMN extract may vary from one preparation to another. A control of each new batch is run, and the volume added in the assay procedure is adjusted according to activity.
Compound `CO[C@H]1C(=O)N2C(c3nnn[nH]3)=C(COC(=O)N(C)C)CS(=O)(=O)[C@H]12` [R^1=OCH3, A=(CH3)2NCOO, R=H, Q^1=H] has an IC50 of 5370 nM. Compound `COc1ccc(Cn2nnnc2C2=C(COC(=O)N(C)C)CS(=O)(=O)[C@@H]3[C@@H](OC)C(=O)N23)cc1` [R^1=OCH3, A=(CH3)2NCOO, R=PMB, Q^1=H] has an IC50 of 1420 nM. Work on `CO[C@H]1C(=O)N2C(c3nnn[nH]3)=C(COC(=O)NCc3ccccc3)CS(=O)(=O)[C@H]12` [R^1=OCH3, A=.phi.CH2NHCOO, R=H, Q^1=H, 3-(N-Benzyl-carbamoyloxy-methyl)-7α-methoxy-4-(1H-tetrazol-5-yl)-3-cephem-1,1-dioxide] yielded an IC50 of 9210 nM. With `COc1ccc(Cn2nnnc2C2=C(COC(=O)NCc3ccccc3)CS(=O)(=O)[C@@H]3[C@@H](OC)C(=O)N23)cc1` [R^1=OCH3, A=.phi.CH2NHCOO, R=PMB, Q^1=H, 3-(N-benzyl-carbamoyloxy-methyl)-7α-methoxy-4-(1-p-methoxybenzyl-tetrazol-5-yl)-3-cephem-1,1-dioxide] the IC50 was 541 nM. With `CO[C@H]1C(=O)N2C(c3nnn[nH]3)=C(COC(C)=O)CS(=O)(=O)[C@H]12` [R^1=OCH3, A=CH3COO, R=H, Q^1=H, 3-Acetoxymethyl-7α-methoxy-4-(tetrazol-5-yl)-3-cephem-1,1-dioxide] the IC50 was 58300 nM. `COc1ccc(Cn2nnnc2C2=C(COC(C)=O)CS(=O)(=O)[C@@H]3[C@@H](OC)C(=O)N23)cc1` [R^1=OCH3, A=CH3COO, R=PMB, Q^1=H, 3-acetoxymethyl-7α-methoxy-4-[1-(p-methoxybenzyl)tetrazol-5-yl]-3-cephem-1,1-dioxide] was tested, and the IC50 was 1730 nM.

Same assay, conditions: Table II; crude PMN extract, Boc-AAPAN substrate, pH 7.5; 50% inhibition 2 minutes after zero time
`CO[C@H]1C(=O)N2C(c3nnn(Cc4ccccc4C(=O)O)n3)=C(COC(C)=O)CS(=O)(=O)[C@H]12` gave an IC50 of 628 nM. `CO[C@H]1C(=O)N2C(c3nnn(Cc4ccccc4C(=O)OC(C)(C)C)n3)=C(COC(C)=O)CS(=O)(=O)[C@H]12` gave an IC50 of 562 nM. Compound `CO[C@H]1C(=O)N2C(c3nnn(Cc4ccc(C(=O)O)cc4)n3)=C(COC(C)=O)CS(=O)(=O)[C@H]12` [3-acetoxymethyl-7α-methoxy-4-[2-(-hydroxycarbonylbenzyl)tetrazol-5-yl]-3-cephem-1,1-dioxide] has an IC50 of 419 nM. Work on `CO[C@H]1C(=O)N2C(c3nnn(Cc4ccc(C(=O)OC(C)(C)C)cc4)n3)=C(COC(C)=O)CS(=O)(=O)[C@H]12` [3-acetoxymethyl-7α-methoxy-4-[2-(p-t-butoxycarbonylbenzyl)tetrazol-5-yl]-3-cephem-1,1-dioxide] yielded an IC50 of 75 nM. Compound `CO[C@H]1C(=O)N2C(c3nnn(CC(=O)O)n3)=C(COC(C)=O)CS(=O)(=O)[C@H]12` [Table II: A=CH3COO, R=CH2COOH, Q^1=H] has an IC50 of 7470 nM. `CO[C@H]1C(=O)N2C(c3nnn(C)n3)=C(COC(C)=O)CS(=O)(=O)[C@H]12` [Table II: A=CH3COO, R=CH3, Q^1=H] gave an IC50 of 560 nM.

Same assay, conditions: Table III, lower part; crude PMN extract, Boc-AAPAN substrate, pH 7.5; 2 minutes after zero time
For `COc1ccc(Cn2nnnc2C2N3C(=O)C(NC(=O)C(F)(F)F)C3SC2(C)C)cc1` (centres unmarked) [drawing 32, n=0], the IC50 was 21900 nM. `COc1ccc(Cn2nnnc2C2N3C(=O)C(NC(=O)C(F)(F)F)C3S(=O)(=O)C2(C)C)cc1` (centres unmarked) [drawing 32, n=2] gave an IC50 of 409 nM.

Same assay, conditions: Table III, upper part; crude PMN extract, Boc-AAPAN substrate, pH 7.5; 2 minutes after zero time
For `COc1ccc(Cn2nnnc2[C@@H]2N3C(=O)[C@@H](NC(=O)C(F)(F)F)C3SC2(C)C)cc1` (some centres unmarked) [drawing 31, n=0], the IC50 was 4380 nM. `COc1ccc(Cn2nnnc2[C@@H]2N3C(=O)[C@@H](NC(=O)C(F)(F)F)C3[S+]([O-])C2(C)C)cc1` (some centres unmarked) [drawing 31, n=1] was tested, and the IC50 was 4230 nM. In the case of `COc1ccc(Cn2nnnc2[C@@H]2N3C(=O)[C@@H](NC(=O)C(F)(F)F)C3S(=O)(=O)C2(C)C)cc1` (some centres unmarked) [drawing 31, n=2], the IC50 is reported as 1020 nM.
